± gives the expanded uncertainty stated by the source.
How the values were obtained:
[1] = 101.33 kPa, Liquid
[2] = relative permittivity at various frequencies (dimensionless); conditions: 101.3 kPa, Liquid, Frequency=1 MHz, HP4284A LCR Meter with HP16452A measuring cell

mass density ([1]; 288.15 K) [kg/m3] | mass density ([1]; 293.15 K) [kg/m3] | mass density ([1]; 298.15 K) [kg/m3] | mass density ([1]; 303.15 K) [kg/m3] | mass density ([1]; 308.15 K) [kg/m3] | mass density ([1]; 318.15 K) [kg/m3] | mass density ([1]; 328.15 K) [kg/m3] | relative permittivity ([2]; 288.15 K) | relative permittivity ([2]; 293.15 K) | relative permittivity ([2]; 298.15 K) | relative permittivity ([2]; 303.15 K) | relative permittivity ([2]; 308.15 K) | relative permittivity ([2]; 318.15 K) | relative permittivity ([2]; 328.15 K) | SMILES
989.16 ± 0.76 | 984.16 ± 0.78 | 979.61 ± 0.8 | 974.85 ± 0.82 | 970.85 ± 0.84 | 960.67 ± 0.89 | 951.06 ± 0.94 | 7.88 ± 0.16 | 7.73 ± 0.15 | 7.58 ± 0.15 | 7.46 ± 0.15 | 7.33 ± 0.15 | 7.09 ± 0.14 | 6.88 ± 0.14 | COCCOCCOCCOC [2,5,8,11-tetraoxadodecane]
752.44 ± 0.64 | 748.8 ± 0.65 | 745.19 ± 0.65 | 741.57 ± 0.66 | 737.93 ± 0.66 | 730.7 ± 0.67 | 723.32 ± 0.68 | 2.04 ± 0.04 | 2.03 ± 0.04 | 2.02 ± 0.04 | 2.02 ± 0.04 | 2.01 ± 0.04 | 2 ± 0.04 | 1.99 ± 0.04 | CCCCCCCCCCCC [dodecane]
721.77 ± 0.6 | 717.76 ± 0.6 | 713.77 ± 0.61 | 709.89 ± 0.61 | 706.2 ± 0.62 | 698.14 ± 0.63 | 690.14 ± 0.64 | 1.99 ± 0.04 | 1.99 ± 0.04 | 1.98 ± 0.04 | 1.97 ± 0.04 | 1.96 ± 0.04 | 1.95 ± 0.04 | 1.94 ± 0.04 | CCCCCCCCC [nonane]
